Measured values: US4650661A, “Enzyme inhibitors” (priority 1982, dated 1987)
Like-named read-outs stand apart in the source and are kept apart here. Non-standard residues stand in square brackets, D forms with d. Residues, ends and D or L forms follow the SMILES beside them. *: point of attachment. Sta = CC(C)C[C@H](N)[C@@H](O)CC(=O)O; Isovaleryl = CC(C)CC(=O)*

How the values were obtained:
[1] = tested on: acid proteases; details: cited from earlier work
[2] = target: T1, human renin (Homo sapiens, UniProt P00797); assay: renin inhibition, methods of published European specification; type: biochemical
T1 sequence (P00797 67-406): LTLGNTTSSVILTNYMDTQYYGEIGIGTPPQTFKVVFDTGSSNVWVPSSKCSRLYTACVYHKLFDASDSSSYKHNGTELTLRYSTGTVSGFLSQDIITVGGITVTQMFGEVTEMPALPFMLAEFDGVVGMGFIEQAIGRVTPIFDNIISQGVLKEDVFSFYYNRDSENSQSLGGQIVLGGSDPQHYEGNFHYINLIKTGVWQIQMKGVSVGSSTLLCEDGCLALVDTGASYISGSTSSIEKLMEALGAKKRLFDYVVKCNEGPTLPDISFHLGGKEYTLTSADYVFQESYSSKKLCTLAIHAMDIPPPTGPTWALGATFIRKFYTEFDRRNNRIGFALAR
Text: (§1) This compound is the subject of Example 1 below.

[3] = tested on: baboon renin; assay: renin inhibition, baboon renin; type: biochemical; details: preliminary results, read-out: IC50 against baboon renin (preliminary results)
Text: as §1
The following are the fully detailed examples referred to earlier. The activity of H-176 (Example I) has already been given.

CC(C)CC(=O)N[C@H](C(=O)N[C@H](C(=O)N[C@@H](CC(C)C)[C@@H](O)CC(=O)N[C@@H](C)C(=O)N[C@@H](CC(C)C)[C@@H](O)CC(=O)O)C(C)C)C(C)C [pepstatin, iso-valeryl-L-valyl-L-valyl-S,S,-statyl-L-alanyl-S,S-statine] (Isovaleryl-VV[Sta]A[Sta]-OH)
inhibition of acid proteases (pepsin, cathepsin D, chymosin, renin) [1]: inhibits acid proteases in general

H-HPFH[Sta]VIH-OH [Example H-176]
IC50 ([2]; read-out: IC50 against human renin): 16 nM

H-PHPFH[Sta]VIHK-OH [Example H-189]
IC50 [3]: 12 nM
IC50 ([2]; preliminary results, read-out: IC50 against human renin (preliminary results)): 9 nM
